Test results taken from PubChem BioAssay AID2384 (Southern Research Specialized Biocontainment Screening …, 2010).

tested on: S. typhi GFP reporter counter-screen, fluorescence, 4 h; assay: S. typhi counter-screen signal inhibition – fluorescence, 4 h, counter-screen for PhoP regulon inhibitor project, dose response (AID 2384)

Row | SMILES | IC50
1 | Cc1cc(C)c(NC(=O)C[N+](C)(C)CC(O)COc2cccc3ccccc23)c(C)c1 (stereo not drawn) | 63.8 µM
2 | O=C1NCCN1c1ncc([N+](=O)[O-])s1 | 28.2 µM
3 | CN(Cc1ccccc1O)CC1CCCN(CCc2ccc(Cl)cc2)C1 (stereo not drawn) | 16.9 µM
4 | O=C(/C=C/c1ccccc1)NC(=S)NNC(=O)c1cnccn1 | 20.9 µM
5 | NC1=NC[C@H](c2ccccc2)N1CCc1cc(C(F)(F)F)cc(C(F)(F)F)c1 | 31.1 µM
6 | C#CCOCCOCCOCCNc1nc(N2CCN(C(=O)[C@H](CCCCN)n3cc([C@@H](N)CO)nn3)CC2)nc(N2CCN(C(=O)[C@H](Cc3cc4ccccc4[nH]3)n3cc([C@@H](N)Cc4ccc(O)cc4)nn3)CC2)n1 | 93 µM
7 | Cc1ccc(C(=O)O)cc1N=Cc1cc(Br)cc(Br)c1O | 16.7 µM
8 | O=C(CCC(=O)Nc1ccc(Cl)cc1Cl)N/N=C/c1ccc([N+](=O)[O-])o1 | 29 µM
9 | O=C(CCN1CCN(c2ccccc2)CC1)c1ccc(Br)cc1 | 70.1 µM
10 | CCC(C)(C)c1ccc(OCCCC[n+]2ccccc2)c(C(C)(C)CC)c1 | 35.3 µM
11 | CCc1ccc2c(c1)Sc1ccccc1CC2N1CCN(C)CC1 (stereo not drawn) | 31.3 µM
12 | Nc1nonc1C(=O)N/N=C/c1cc(Br)ccc1O | 14 µM
13 | CNCc1c(OCc2ccccc2F)ccc2ccccc12 | 37.2 µM
14 | N/C(=N\OS(=O)(=O)c1ccc(Cl)cc1)c1cccnc1 | 12.4 µM
15 | C#CCOCCOCCOCCNc1nc(N2CCN(C(=O)CCCCCCCCCCNC(=O)[C@H](CCCCN)n3cc(CCO)nn3)CC2)nc(N2CCN(C(=O)CCCCCCCCCCNC(=O)[C@H](CCCN=C(N)N)n3cc(C[C@@H](C)CC)nn3)CC2)n1 | 18.1 µM
16 | C#CCOCCOCCOCCNc1nc(N2CCN(C(=O)CCCCCCCCCCNC(=O)[C@H](CCCCN)n3cc(C)nn3)CC2)nc(N2CCN(C(=O)CCCCCCCCCCNC(=O)[C@@H]([C@H](C)CC)n3cc(CCCCCN)nn3)CC2)n1 | 20.4 µM
17 | Cc1c(CCOC(=O)C2C3CC4CC(C3)CC2C4)sc[n+]1CC(=O)c1ccc(Br)cc1 (stereo not drawn) | 25.7 µM
18 | Clc1cc(Br)ccc1OCCCNCc1ccccc1 | 39.3 µM
19 | CC(C)(C)c1ccc(NC(=O)COC(=O)c2ccc([N+](=O)[O-])s2)cc1 | 15.1 µM
20 | O=c1c2ccccc2[nH]c2ccccc12 | 62 µM
21 | Nc1cccc2nc3ccccc3cc12 | 68.7 µM
22 | CC(=O)NC(c1ccc(Cl)cc1Cl)c1ccc2cccnc2c1O (stereo not drawn) | 39.6 µM

Row | SMILES | IC50
23 | CCN(CC(O)COc1ccc(OCC(O)CN(CC)C2CCCCC2)cc1)C1CCCCC1 (stereo not drawn) | 52.4 µM
24 | Cc1cc(C(C)(C)CC(C)(C)C)ccc1OCCOCC[N+](C)(C)Cc1ccccc1 | 16.8 µM
25 | CCN1/C(=C/c2cc[n+](C)cc2)C=Cc2cc(C)ccc21 | 39.4 µM
26 | CCOc1cccc(/C=N/NC(=O)c2cc(C3CC3)[nH]n2)c1O | 127 µM
27 | Cc1occc1C(=O)N/N=C/c1cccs1 | 54.9 µM
28 | Cc1cc(O)c2c(c1)C(=O)C13C(=C2O)C(=O)[C@H]2[C@@H](O)[C@@H]1[C@H]1[C@H](O)[C@@H]3C(=O)C3=C(O)c4c(O)cc(C)cc4C(=O)C312 (stereo partly drawn) | 7.46 µM
29 | Cc1nnc(N/N=C/c2ccccn2)[nH]c1=O | 31.4 µM
30 | C/C(=C\C(=O)OCCCCCCCCC(=O)O)C[C@@H]1OC[C@H](C[C@@H]2O[C@H]2[C@@H](C)[C@H](C)O)[C@@H](O)[C@H]1O | 38.4 µM
31 | COc1ccc(CNCCC(c2ccccc2)c2ccc3c(c2)OCO3)cc1 (stereo not drawn) | 73.4 µM
32 | O=C(Nc1ccccc1)Oc1ccc[nH]c1=O | 52.9 µM
33 | Cc1ccc(N=Cc2cc(Br)cc(Cl)c2O)cc1 | 47.1 µM
34 | c1ccc(CN2CCC(Nc3nc(-c4ccccc4)nc4ccccc34)CC2)cc1 | 38 µM
35 | Clc1ccc(CN2CCc3c([nH]c4ccccc34)C2)cc1Cl | 36.2 µM
36 | O=C1CSC(=S)N1c1cccc(O)c1 | 59.9 µM
37 | CCCCCCCCCCOC(=O)Cn1c(COc2cccc(C)c2)[n+](C)c2ccccc21 | 9.7 µM
38 | Oc1cccc(C=NCc2ccccc2)c1O | 73.7 µM
39 | CCN(CC)c1ccc(CNc2nc3ccccc3n2C)cc1 | 81.6 µM
40 | COc1cc(C(=O)N/N=C/c2ccc(OC(=O)c3cccc(C)c3)c(OC)c2)ccc1O | 108 µM
41 | COc1cccc(/C=N\NC(=O)Cn2nnc3ccccc32)c1O | 94.6 µM
42 | O=C(CSc1ccccn1)N/N=C/c1cc([N+](=O)[O-])ccc1O | 40.4 µM
43 | COc1ccc(Cc2nnc(N/N=C/c3ccc(O)cc3)[nH]c2=O)cc1OC | 83 µM
44 | [O-][n+]1cccc2c(Br)cc(Br)c(O)c21 | 36.6 µM

Row | SMILES | IC50
45 | CC1CCC(C(C)C)C(OC(=O)Cn2c(COc3ccccc3)[n+](C)c3ccccc32)C1 (stereo not drawn) | 25.6 µM
46 | O=C(c1ccc([N+](=O)[O-])o1)N1CCOCC1 | 81.8 µM
47 | c1ccc(CN2CCC(N3CCN(Cc4ccc5c(c4)OCO5)CC3)CC2)cc1 | 150 µM
48 | O=C(O)c1sccc1Oc1ccc(F)cc1[N+](=O)[O-] | 13.1 µM
49 | COc1ccc(N2CC(C(=O)N/N=C/c3cc([N+](=O)[O-])ccc3O)CC2=O)cc1 (stereo not drawn) | 93.2 µM
50 | Cc1nonc1C(=O)N/N=C/c1ccc(O)cc1O | 20.3 µM
51 | CCN1/C(=C/C=C/C=C/c2sc3ccccc3[n+]2CC)Sc2ccccc21 | 9.68 µM
52 | Cc1cccc2sc(N(CCCN(C)C)C(=O)COc3ccc(Cl)cc3)nc12 | 37.6 µM
53 | CN1CCN(C(c2ccc(C(F)(F)F)cc2)c2ccc3cccnc3c2O)CC1 (stereo not drawn) | 21.8 µM
54 | CCSc1ccc2c(c1)N(CCCN1CCN(C)CC1)c1ccccc1S2 | 71.2 µM
55 | c1ccc2cc3c(NCCN4CCOCC4)ccnc3cc2c1 | 88.2 µM
56 | N=c1n(Cc2ccc(Cl)cc2)c2ccccc2n1CC(O)COc1ccccc1 (stereo not drawn) | 36.6 µM
57 | CN(C)CCN(C(=O)C1=COCCO1)c1nc2ccc(Cl)cc2s1 | 49.5 µM
58 | CN1CCN(Cc2cc(COCc3ccccc3)c3cccnc3c2O)CC1 | 36.8 µM
59 | CCCCc1c(O)nc(SCC(=O)Nc2ccc3c(c2)CCC3)[nH]c1=O | 112 µM
60 | COC(=O)C1C(O)C(C)C(O)C(C)/C=C\C=C(/C)C(=O)Nc2c(C)c(OC(C)=O)c3c(c2O)C(=O)C(C)=C2OCOC(=C23)/C(C)=C/C(C)(O)C(O)C(C)C1O (stereo not drawn) | 15.2 µM
61 | COc1ccc(C(=O)NC(=S)NNC(=O)c2cccc(C)c2)cc1 | 48.8 µM
62 | CN(C)CC/C=C1\c2ccccc2Sc2cc(F)c(Cl)cc21 | 34.8 µM
63 | O=C(CCN1CCN(c2ccccc2F)CC1)c1ccc(Br)cc1 | 37.2 µM
64 | N#C/C(=C\c1ccc(O)c(O)c1)C(=O)NCc1ccccc1 | 132 µM
65 | Cc1ccc(S(=O)(=O)CCC(=O)c2ccc(O)cc2O)cc1 | 57.5 µM
66 | COc1ccc2nc(N(CCN(C)C)C(=O)/C=C/c3cccs3)sc2c1 | 65.8 µM

Row | SMILES | IC50
67 | Fc1ccc(Nc2c3c(nc4ccccc24)CCC3)cc1 | 47 µM
68 | CC1(CC(=O)N/N=C/c2cc([N+](=O)[O-])c(O)cc2O)OCCO1 | 74 µM
69 | O=C(N/N=C/c1c[nH]c2ccccc12)c1cc2ccccc2o1 | 99.8 µM
70 | Cn1c(-c2ccc3c(c2)OCO3)cnc1NCc1ccc(Cl)cc1 | 76.3 µM
71 | Cc1ccc(NC(=O)c2ccc([N+](=O)[O-])o2)c(C)c1 | 67.9 µM
72 | Cc1ccc(CNCCC2=CCCCC2)cc1 | 70.7 µM
73 | Cc1ccc(-c2c[n+](Cc3ccc(Cl)c(Cl)c3)c3n2CCC3)cc1 | 25.8 µM
74 | COc1ccc(/C=C/c2cc(-c3ccc(C)cc3)o[n+]2C)cc1 | 42.7 µM
75 | Cc1c2ccncc2c(C)c2c1[nH]c1ccccc12 | 21.2 µM
76 | O=C(Nc1ccccc1)c1c(O)[nH]c(=S)[nH]c1=O | 84.8 µM
77 | Cc1cc(N=Nc2ccccc2)c(NCC(O)C(O)C(O)CO)cc1C (stereo not drawn) | 144 µM
78 | CCc1ccc(N2CC(C(=O)N/N=C/c3cc([N+](=O)[O-])ccc3O)CC2=O)cc1 (stereo not drawn) | 48.7 µM
79 | Cc1ccc(-c2csc(NC(=O)C[n+]3cc(-c4ccc(C)cc4)n4c3CCC4)n2)cc1 | 19.3 µM
80 | O=C(Oc1ccccc1)c1cc2ccccc2o1 | 97 µM
81 | Cc1[nH]c2ccc(OC(F)(F)F)cc2c1CCNCc1ccc(Cl)cc1 | 20.5 µM
82 | OC(CNCc1ccco1)Cn1c2ccc(Br)cc2c2cc(Br)ccc21 (stereo not drawn) | 18.9 µM
83 | Cc1nc(N)c(Cc2ccc(Cl)cc2Cl)c(N)n1 | 30.4 µM
84 | CCCCN(CCCC)C(=O)c1cn(CC)c2cc(N3CCN(C)CC3)c(F)cc2c1=O | 15.7 µM
85 | CN1CCN(c2c(F)cc3c(=O)c(C(=O)O)cn4c3c2OCN4C)CC1 | < 0.55 µM
86 | Cc1nn(-c2cc(N3CCNCC3)ccc2[N+](=O)[O-])c(=O)c2ccccc12 | 141 µM
87 | N=c1n(CCN2CCCCC2)c2ccccc2n1CC(=O)c1ccc(Cl)c(Cl)c1 | 16.4 µM
88 | CCCOc1ccc(C(=O)NNC(=S)NC(C)=O)cc1 | 39.2 µM

Row | SMILES | IC50
89 | N=c1n(CC(=O)c2ccc(Br)s2)c2ccccc2n1Cc1ccccc1 | 27.3 µM
90 | O=C(N/N=C/c1c[nH]c2ccccc12)c1ccc(Cl)cc1 | 91.6 µM
91 | CCCCCCCCCCCCCCCC[N+](C)(C)C | 19.3 µM
92 | c1cc2c(cc1C1CCCCC1)c1c3n2CCN=C3CCC1 | 37.9 µM
93 | CC(C)[C@@H]1CC[C@@H](C)C[C@H]1OC(=O)C[n+]1cc(-c2ccc(Cl)cc2)n2c1CCCCC2 | 74.9 µM
94 | Clc1ccc(CN2C3=NCCN3c3ccccc32)cc1 | 42.8 µM
95 | N=c1c2c(n(Cc3ccc(Cl)cc3)c3c1CCC3)CCC2 | 79.7 µM
96 | c1ccc(Nc2ccnc(Nc3ccccc3)n2)cc1 | 38.9 µM
97 | CC(c1cccnc1)N(CCN(C)C)C(=O)Nc1ccc(Cl)c(Cl)c1 (stereo not drawn) | 98.4 µM
98 | Cc1ccccc1Nc1cc(C)c2c(O)cccc2n1 | 21.9 µM
99 | Clc1ccc(/C=C/c2ncc[nH]2)c(Cl)c1 | 32.5 µM
100 | COc1c(N2CCN(C(=S)NC3CC4CCC3C4)C(C)C2)c(F)cc2c(=O)c(C(=O)O)cn(C3CC3)c12 (stereo not drawn) | 44.1 µM
101 | C#CCOCCOCCOCCNc1nc(N2CCN(C(=O)[C@H](Cc3cc4ccccc4[nH]3)n3cc([C@@H](N)C(C)CC)nn3)CC2)nc(N2CCN(C(=O)[C@H](Cc3cc4ccccc4[nH]3)n3cc([C@@H](N)CC(C)C)nn3)CC2)n1 (stereo partly drawn) | 24.1 µM
102 | C#CCOCCOCCOCCNc1nc(N2CCN(C(=O)[C@H]([C@@H](C)CC)n3cc([C@@H](N)Cc4ccc(O)cc4)nn3)CC2)nc(N2CCN(C(=O)[C@H](Cc3cc4ccccc4[nH]3)n3cc([C@@H](N)CC(C)C)nn3)CC2)n1 | 27.2 µM
103 | COc1ccc(CCN2CCC(Nc3nc4ccccc4n3Cc3ccc(F)cc3)CC2)cc1 | 29.4 µM
104 | O=C(CC1NCCc2ccccc21)Nc1ccc(Oc2ccccc2)cc1 (stereo not drawn) | 51 µM
105 | Cc1ccc(OCC(=O)N/N=C/c2ccc([N+](=O)[O-])o2)cc1 | 28.1 µM
106 | Fc1ccc(Nc2ccnc(Nc3ccc(F)cc3)n2)cc1 | 24.8 µM
107 | O=C(CNCCC1=CCCCC1)Nc1ccc(N2CCCCCC2)cc1 | 24.7 µM
108 | Clc1ccc(OCCCNCc2ccccc2)c(Br)c1 | 28.4 µM
